“And” between values parts separate entries of the source, which are not always exact repeats. Equal values may be shown once. Read-outs that look alike come from different tables or passages of the source.
Tests used:
[1] = system: hSC-CMs (Cor.4U Cardiomyocytes); assay: CardioExcyte 96 impedance and EFP recording (beating rate, base impedance); type: cell-based, human; settings: for BR / Base Imp / activity at 0.03 µM / activity at 0.3 µM / activity at 3 µM / activity at 30 µM: vs baseline before drug (taken as 100%); for activity at 0.03 µM / activity at 0.3 µM / activity at 3 µM / activity at 30 µM: Homo sapiens, Cardiomyocyte
Protocol: Cor.4U® Cardiomyocytes (Ncardia, Netherlands) were cultured in 96-well plates at density of 25,000 – 30,000 cells per well. Cells were maintained at 5% CO2 and 37 °C for 4 days prior to experiments.
Functional monitoring of cardiomyocytes was done using CardioExcyte® 96 (Nanion technologies GmbH, Germany). Extracellular field potential (EFP) and impedance signals were recorded from hSC-CMs that formed monolayers in the wells of the NSP-96 plate. Beating Rate (BR, per minute) was calculated as the reciprocal of the inter-spike interval (ISI) in EFP signal. Impedance signals from spontaneously beating hSC-CMs were recorded with a sampling rate of 1 ms (1 kHz), and EFP data were collected at 0.1ms (10 kHz). Data acquisition was controlled by CardioExcyte® 96 Control software as previously described ([22]). The functional parameters recorded in each concentration of test items were compared to the base line values before drug addition (taken as 100%) to define fractional change.

[2] = system: hSC-CMs (Cor.4U Cardiomyocytes); assay: ATP assay (CellTiter-Glo Luminescent Cell Viability Assay); type: cell-based, human; settings: for ATP: normalized to time-matched DMSO control
Protocol: Cor.4U® Cardiomyocytes (Ncardia, Netherlands) were cultured in 96-well plates at density of 25,000 – 30,000 cells per well. Cells were maintained at 5% CO2 and 37 °C for 4 days prior to experiments. The cell culture medium (Cor4U® Complete Culture Medium, cat# Ax-M-HC250E, Axiogenesis AG, Cologne, Germany) was changed every 24 h and was replaced by serum-free BMCC medium (cat# Ax-M-BMCC259, Axiogenesis AG, Cologne, Germany) 12 h prior to drug addition.
The CellTiter-Glo Luminescent Cell Viability Assay (cat# G7572, Promega, USA) was performed for quantification of the cellular ATP concentration according to manufacturer's instructions. Plates were shaken for 2 min in the dark, incubated at ambient temperature for 10 min before measuring luminescence (Integration time 0.1 seconds per well) with Luminescence Counter (Synergy H1, BioTek Instruments, Inc., Winooski, Vermont). The measured ATP concentration values were normalized to the time-matched DMSO controls. Data are representative of at least three replicates per concentration.

PI3K p110β = settings: ref [23]–[25] (NVP-BEZ235), [27] (LY 294002), [28] (GDC-0941), [32] (TGX-221), [33] (CAL-101), [35] (CZC24832); read-out: Target IC50 p110β; cited from earlier work
[3] = system: hSC-CMs (Cor.4U Cardiomyocytes); assay: Apoptosis assay (CellEvent Caspase-3/7 Green, IncuCyte ZOOM kinetics over 24 h); type: cell-based, human; parameters: key to Caspase / Caspase MEAN: % of time-matched vehicle control (green object area); settings: for Caspase / activity at 0.03 µM / activity at 0.3 µM / activity at 3 µM / activity at 30 µM: normalized to time-matched vehicle control; for activity at 0.03 µM / activity at 0.3 µM / activity at 3 µM / activity at 30 µM: Homo sapiens, Cardiomyocyte; for Caspase MEAN: DMSO = 100
Protocol: Cor.4U® Cardiomyocytes ([…], Netherlands) were cultured in 96-well plates at density of 25,000 - 30,000 cells per well. Cells were maintained at 5% CO2 and 37 °C for 4 days prior to experiments. […] The plates were incubated 2 h before compound treatment in the IncuCyte ZOOM (ESSEN BioScience, Ann Arbor, Michigan) to set a baseline before the 24 h compound treatment. […] Imaging was done using 10x microscope objective of the IncuCyteZOOM with four images per well-taken every 2 h in both phase-contrast and green fluorescence. The fluorescent nuclear signal of the apoptotic cells was separated from background with the integrated object counting algorithm, adjusted to cardiomyocytes, and the calculated total green object area per well (μm^2/well) plotted against time. Data were normalized to those of the time-matched vehicle control. Data were representative of at least three replicates per concentration.

SMILES: Cc1cc(C(C)Nc2ccccc2)c2nc(N3CCOCC3)cc(=O)n2c1 (centres unmarked) [TGX-221]
- Effect on hSC-CMs function (base impedance and beating rate), in words [1]: did not have any effect
- BR ([1]; 0.1 µM, 2h): 98
- Base Imp ([1]; 0.1 µM, 2h): 107
- BR ([1]; 0.1 µM, 24h): 94
- Base Imp ([1]; 0.1 µM, 24h): 106
- BR ([1]; 0.3 µM, 2h): 93
- Base Imp ([1]; 0.3 µM, 2h): 104
- BR ([1]; 0.3 µM, 24h): 91
- Base Imp ([1]; 0.3 µM, 24h): 100
- BR ([1]; 1 µM, 2h): 94
- Base Imp ([1]; 1 µM, 2h): 98
- BR ([1]; 1 µM, 24h): 95
- Base Imp ([1]; 1 µM, 24h): 97
- BR ([1]; 3 µM, 2h): 95
- Base Imp ([1]; 3 µM, 2h): 97
- BR ([1]; 3 µM, 24h): 89
- Base Imp ([1]; 3 µM, 24h): 98
- Change in the hSC-CMs parameters (surface plots: beating rate, base impedance, ATP) ([1]; hSC-CMs, 2 and 24 h): below 20%
- ATP ([2]; 0.1 µM, 2h): 105
- ATP ([2]; 0.1 µM, 24h): 95
- ATP ([2]; 0.3 µM, 2h): 100
- ATP ([2]; 0.3 µM, 24h): 96
- ATP ([2]; 1 µM, 2h): 97
- ATP ([2]; 1 µM, 24h): 97
- ATP ([2]; 3 µM, 2h): 104
- ATP ([2]; 3 µM, 24h): 104
- Effect on ATP level, in words ([2]; hSC-CMs, up to the highest test concentrations): did not have any effect
- IC50 (PI3K p110β): 5 nM
- Apoptosis (caspase-3/7 activation), result in words [3]: no effect
- Caspase ([3]; 0.1 µM, 2h): 104
- Caspase ([3]; 0.1 µM, 24h): 87
- Caspase ([3]; 0.3 µM, 2h): 112
- Caspase ([3]; 0.3 µM, 24h): 95
- Caspase ([3]; 1 µM, 2h): 87
- Caspase ([3]; 1 µM, 24h): 92 and 92.1743
- Caspase ([3]; 3 µM, 2h): 124
- Caspase ([3]; 3 µM, 24h): 111 and 110.619

SMILES: CCOC(=O)c1cnc2ccc(-c3cncc(NS(=O)(=O)c4ccccc4)c3)cn12 [HS-173]
- BR ([1]; 0.03 µM, 2h): 105
- Base Imp ([1]; 0.03 µM, 2h): 87
- BR ([1]; 0.03 µM, 24h): 97
- Base Imp ([1]; 0.03 µM, 24h): 87
- BR ([1]; 0.1 µM, 2h): 93
- Base Imp ([1]; 0.1 µM, 2h): 83
- BR ([1]; 0.1 µM, 24h): 89
- Base Imp ([1]; 0.1 µM, 24h): 85
- BR ([1]; 0.3 µM, 2h): 85
- Base Imp ([1]; 0.3 µM, 2h): 81
- BR ([1]; 0.3 µM, 24h): 84
- Base Imp ([1]; 0.3 µM, 24h): 72
- BR ([1]; 1 µM, 2h): 86
- Base Imp ([1]; 1 µM, 2h): 69
- BR ([1]; 1 µM, 24h): 75
- Base Imp ([1]; 1 µM, 24h): 67
- Reduction of base impedance ([1]; hSC-CMs, 2 and 24 h): more than 20%
- Reduction of beating rate ([1]; hSC-CMs, 2 and 24 h): more than 20%
- ATP ([2]; 0.03 µM, 2h): 89
- ATP ([2]; 0.03 µM, 24h): 98
- ATP ([2]; 0.1 µM, 2h): 87
- ATP ([2]; 0.1 µM, 24h): 99
- ATP ([2]; 0.3 µM, 2h): 86
- ATP ([2]; 0.3 µM, 24h): 90
- ATP ([2]; 1 µM, 2h): 86
- ATP ([2]; 1 µM, 24h): 83
- Decrease of ATP level ([2]; hSC-CMs, after 24 h of incubation): 20–25%
- Apoptosis (caspase-3/7 activation), result in words [3]: induced apoptosis in hSC-CMs with a fast onset
- Caspase ([3]; 0.03 µM, 2h): 167
- Caspase ([3]; 0.03 µM, 24h): 80
- Caspase ([3]; 0.1 µM, 2h): 138
- Caspase ([3]; 0.1 µM, 24h): 151
- Caspase ([3]; 0.3 µM, 2h): 123
- Caspase ([3]; 0.3 µM, 24h): 200
- Caspase ([3]; 1 µM, 2h): 120
- Caspase ([3]; 1 µM, 24h): 373
- Time to reach the maximum number of apoptotic cells ([3]; hSC-CMs, monitored over 24 h): ≤ 12 h

SMILES: Cn1c(=O)n(-c2ccc(C(C)(C)C#N)cc2)c2c3cc(-c4cnc5ccccc5c4)ccc3ncc21 [NVP-BEZ235, Dactolisib]
- activity at 0.03 µM ([1]; 0.03 µM, 2h, read-out: BR): 99%
- activity at 0.03 µM ([1]; 0.03 µM, 2h, read-out: Base Imp): 88%
- activity at 0.03 µM ([1]; 0.03 µM, 24h, read-out: BR): 90%
- activity at 0.03 µM ([1]; 0.03 µM, 24h, read-out: Base Imp): 85%
- activity at 0.3 µM ([1]; 0.3 µM, 2h, read-out: BR): 73%
- activity at 0.3 µM ([1]; 0.3 µM, 2h, read-out: Base Imp): 86%
- activity at 0.3 µM ([1]; 0.3 µM, 24h, read-out: BR): 57%
- activity at 0.3 µM ([1]; 0.3 µM, 24h, read-out: Base Imp): 75%
- activity at 3 µM ([1]; 3 µM, 2h, read-out: BR): 39%
- activity at 3 µM ([1]; 3 µM, 2h, read-out: Base Imp): 71%
- activity at 3 µM ([1]; 3 µM, 24h, read-out: BR): 14%
- activity at 3 µM ([1]; 3 µM, 24h, read-out: Base Imp): 52%
- activity at 30 µM ([1]; 2h, read-out: BR): 19%
- activity at 30 µM ([1]; 2h, read-out: Base Imp): 51%
- activity at 30 µM ([1]; 24h, read-out: BR): 30%
- activity at 30 µM ([1]; 24h, read-out: Base Imp): 45%
- Effect on cardiomyocyte function in 3D surface plots (beating rate, base impedance, ATP), in words ([1]; hSC-CMs, 2 and 24 h): pronounced effects
- Reduction of base impedance ([1]; hSC-CMs, 2 and 24 h): more than 20%
- Reduction of beating rate ([1]; hSC-CMs, 2 and 24 h): more than 20%
- activity at 0.03 µM ([3]; 0.03 µM, 2h): 242%
- activity at 0.03 µM ([3]; 0.03 µM, 24h): 188%
- activity at 0.3 µM ([3]; 0.3 µM, 2h): 148%
- activity at 0.3 µM ([3]; 0.3 µM, 24h): 320%
- activity at 3 µM ([3]; 3 µM, 2h): 72%
- activity at 3 µM ([3]; 3 µM, 24h): 228%
- activity at 30 µM ([3]; 2h): 86%
- activity at 30 µM ([3]; 24h): 355%
- Apoptosis (caspase-3/7 activation), result in words ([3]; hSC-CMs, monitored over 24 h): induced apoptosis in hSC-CMs with a fast onset
- Time to reach the maximum number of apoptotic cells ([3]; hSC-CMs, monitored over 24 h): ≤ 12 h

SMILES: CN[C@@H]1C[C@H]2O[C@@](C)([C@@H]1OC)n1c3ccccc3c3c4c(c5c6ccccc6n2c5c31)C(=O)NC4 [Staurosporine]
- Caspase MEAN ([3]; 1 µM, Time 2.75): 85
- Caspase MEAN ([3]; 1 µM, Time 4.75): 254
- Caspase MEAN ([3]; 1 µM, Time 6.75): 1532
- Caspase MEAN ([3]; 1 µM, Time 8.75): 3137
- Caspase MEAN ([3]; 1 µM, Time 10.75): 4841
- Caspase MEAN ([3]; 1 µM, Time 12.75): 5989
- Caspase MEAN ([3]; 1 µM, Time 14.75): 7301
- Caspase MEAN ([3]; 1 µM, Time 16.75): 7458
- Caspase MEAN ([3]; 1 µM, Time 18.75): 8506
- Caspase MEAN ([3]; 1 µM, Time 20.75): 7604
- Caspase MEAN ([3]; 1 µM, Time 22.75): 7381
- Caspase MEAN ([3]; 1 µM, Time 24.75): 7608
- Caspase MEAN ([3]; 1 µM, Time 26.75): 7240

From PMC8242589, “Cardiac Safety of Kinase Inhibitors – Improving Understanding and Prediction of Liabilities in Drug Discovery Using Human Stem Cell-Derived Models” (Frontiers in Cardiovascular Medicine, 2021)
